Source: US5965088A, “Method for providing rapid disinfection of contact lenses” (priority 1997, dated 1999)
Like-named read-outs stand apart in the source and are kept apart here.

Tested on: Staphylococcus aureus (ATCC 6538)
Assay: Antimicrobial efficacy (stand-alone log reduction), S. aureus
Format: cell-based
Details: for log reduction at 4 ppm / log reduction at 1 ppm / log reduction at 2 ppm / log reduction at 3 ppm / log reduction at 5 ppm / log reduction at 4 µg/mL: Staphylococcus aureus; for log reduction at 4 µg/mL: 4.0 ppm alexidine in ReNu MPS
Procedure: This Example illustrates the microbiocidal efficacy of solutions according to the present invention. The antimicrobial efficacy of each of various compositions for the chemical disinfection of contact lenses was evaluated. Microbial challenge inoculums were prepared using Pseudomonas aeruginosa (ATCC 9027), Staphylococcus aureus (ATCC 6538), Serratia marcescens (ATCC 13880), Candida albicans (ATCC 10231), and Fusarium solani (ATCC 36031). The test organisms were cultured on appropriate agar and the cultures were harvested using sterile DPBST (Dulbecco's Phosphate Buffered Saline plus 0.05% w/v polysorbate 80) or a suitable diluent and transferred to a suitable vessel. Spore suspensions were filtered through sterile glass wool to remove hyphal fragments. Serratia marcescens, as appropriate, was filtered (eg., through a 1.2 μ filter) to clarify the suspension. After harvesting, the suspension was centrifuged at no more than 5000× g for a maximum of 30 minutes at 20-25° C. The supernatant was poured off and resuspended in DPBST or other suitable diluent. The suspension was centrifuged a second time, and resuspended in DPBST or other suitable diluent. All challenge bacterial and fungal cell suspensions were adjusted with DPBST or other suitable diluent to 1×10^7 -10^8 cfu/mL. The appropriate cell concentration may be estimated by measuring the turbidity of the suspension, for example using a spectrophotometer at a preselected wavelength, for example 490 nm. One tube was prepared containing a minimum of 10 mL of test solution per challenge organism. Each tube of the solution to be tested was inoculated with a suspension of the test organism sufficient to provide a final count of 1.0×10^5 -10^6 cfu/mL, the volume of the inoculum not exceeding 1% of the sample volume. Dispersion of the inoculum was ensured by vortexing the sample for at least 15 seconds. The inoculated product was stored at 10-25° C. Aliquots in the amount of 1.0 mL were taken of the inoculated product for determination of viable counts after certain time periods of disinfection. The time points for the bacteria were 25, 50, 75, and 100% of the minimum disinfection time. Yeast and mold were tested at an additional timepoint of at least 400% of the minimum disinfection time. The suspension was mixed well by vortexing vigorously for at least 5 second. The 1.0 mL aliquots removed at the specified time intervals were subjected to a suitable series of decimal dilutions in validated neutralizing media. The suspensions were mixed vigorously and incubated for a suitable period of time to allow for neutralization of the microbial agent. The viable count of organisms was determined in appropriate dilutions by preparation of triplicate plates of trypticase soy (TSA) agar for bacteria and Sabouraud dextrose agar (SDA) for mold and yeast. The bacterial recovery plates were incubated at 30-35° C. for 2-4 days. The yeast was incubated at 20-30° C. for 2-4 days and mold recovery plates at 20-25° C. for 3-7 days. The average number of colony forming units was determined on countable plates. Countable plates refer to 30-300 cfu/plates for bacteria and yeast, and 8 to 80 cfu/plate for mold except when colonies are observed only for the 10^0 or 10^-1 dilution plates. The microbial reduction was then calculated at the specified time points. […] Following inoculation in a validated neutralizing broth and incubation for an appropriate period of time, the inoculum control must be between 1.0×10^5 -1.0×10^6 cfu/mL
The solutions were evaluated based on the performance requirement referred to as the "Stand-Alone Procedure for Disinfecting Products" (hereafter the "stand-alone test") and is based on the Disinfection Efficacy Testing for contact lens care products under the Draft Premarket Notification (510(k)) Guidance Document For Contact Lens Care Products dated Apr. 1, 1996, prepared by the U.S. Food and Drug Administration, Division of Ophthalmic Devices. […]

CCCCC(CC)CNC(=N)NC(=N)NCCCCCCNC(=N)NC(=N)NCC(CC)CCCC.Cl.Cl (centres unmarked) [Alexidine.2HCl, 1,1 '-hexamethylenebis(5-(2-ethylhexyl)-biguanide) dihydrochloride]
stand-alone test, 15 minute time point (4.0 ppm, Example 6, 15 min): the 15 minute time point failed
log reduction at 4 ppm (ATCC6538, 2.5 min): 2
log reduction at 4 ppm (ATCC6538, 2.5 min, 4.0 ppm, aged 18 months, Exp. 1, 2.5 min, read-out: Log Reduction): 2.2
log reduction at 4 ppm (ATCC6538, 2.5 min, 4.0 ppm, aged 18 months, Exp. 2, 2.5 min, read-out: Log Reduction): 1.6
log reduction at 1 ppm (ATCC6538, 5 min, 1.0 ppm, read-out: Log Reduction at 5 Minutes): 0.7
log reduction at 2 ppm (ATCC6538, 5 min, 2.0 ppm, read-out: Log Reduction at 5 Minutes): 1.6
log reduction at 3 ppm (ATCC6538, 5 min, 3.0 ppm, read-out: Log Reduction at 5 Minutes): 2.6
log reduction at 4 ppm (ATCC6538, 5 min, 4.0 ppm, aged 18 months, Exp. 1, 5.0 min, read-out: Log Reduction): 2.7
log reduction at 4 ppm (ATCC6538, 5 min, 4.0 ppm, aged 18 months, Exp. 2, 5.0 min, read-out: Log Reduction): 2
log reduction at 4 ppm (ATCC6538, 5 min, 4.0 ppm, aged 18 months, Exp. 3, 5.0 min, read-out: Log Reduction): 2.8
log reduction at 4 ppm (ATCC6538, 5 min, 4.0 ppm, read-out: Log Reduction at 5 Minutes): 4.8
log reduction at 5 ppm (ATCC6538, 5 min, 5.0 ppm, read-out: Log Reduction at 5 Minutes): 4.8
log reduction at 4 ppm (ATCC6538, 0.125 h): 2.3
log reduction at 4 ppm (ATCC6538, 0.125 h, 4.0 ppm, aged 18 months, Exp. 1, 7.5 min, read-out: Log Reduction): 3.1
log reduction at 4 ppm (ATCC6538, 0.125 h, 4.0 ppm, aged 18 months, Exp. 3, 7.5 min, read-out: Log Reduction): 3.4
log reduction at 1 ppm (ATCC6538, 10 min, 1.0 ppm, read-out: Log Reduction at 10 Minutes): 1
log reduction at 2 ppm (ATCC6538, 10 min, 2.0 ppm, read-out: Log Reduction at 10 Minutes): 2.6
log reduction at 3 ppm (ATCC6538, 10 min, 3.0 ppm, read-out: Log Reduction at 10 Minutes): 4
log reduction at 4 ppm (ATCC6538, 10 min, 4.0 ppm, aged 18 months, Exp. 1, 10.0 min, read-out: Log Reduction): 3.5
log reduction at 4 ppm (ATCC6538, 10 min, 4.0 ppm, aged 18 months, Exp. 2, 10.0 min, read-out: Log Reduction): 2.7
log reduction at 4 ppm (ATCC6538, 10 min, 4.0 ppm, aged 18 months, Exp. 3, 10.0 min, read-out: Log Reduction): 3.9
log reduction at 4 ppm (ATCC6538, 10 min, 4.0 ppm, read-out: Log Reduction at 10 Minutes): 4.8
log reduction at 5 ppm (ATCC6538, 10 min, 5.0 ppm, read-out: Log Reduction at 10 Minutes): > 4.8
log reduction at 4 ppm (ATCC6538, 0.25 h, 4.0 ppm, Ex. 6, aged 19 months at 25 °C, 15 min, read-out: Log Reduction): 2.5
log reduction at 4 ppm (ATCC6538, 0.25 h, 4.0 ppm, Ex. 7, different lot aged 18 months, 15 min, read-out: Log Reduction): 3.7
log reduction at 4 ppm (ATCC6538, 0.25 h, 4.0 ppm, Ex. 8, different batch aged 19 months at 25 °C, 15 min, read-out: Log Reduction): 3.5
log reduction at 4 ppm (ATCC6538, 0.5 h, 4.0 ppm, Ex. 6, aged 19 months at 25 °C, 30 min, read-out: Log Reduction): 4.4
log reduction at 4 ppm (ATCC6538, 0.5 h, 4.0 ppm, Ex. 7, different lot aged 18 months, 30 min, read-out: Log Reduction): 4.7
log reduction at 4 ppm (ATCC6538, 0.5 h, 4.0 ppm, Ex. 8, different batch aged 19 months at 25 °C, 30 min, read-out: Log Reduction): > 4.9
log reduction at 4 ppm (ATCC6538, 0.75 h, 4.0 ppm, Ex. 6, aged 19 months at 25 °C, 45 min, read-out: Log Reduction): > 4.9
log reduction at 4 ppm (ATCC6538, 0.75 h, 4.0 ppm, Ex. 7, different lot aged 18 months, 45 min, read-out: Log Reduction): > 4.8
log reduction at 4 ppm (ATCC6538, 0.75 h, 4.0 ppm, Ex. 8, different batch aged 19 months at 25 °C, 45 min, read-out: Log Reduction): > 4.9
log reduction at 1 ppm (ATCC6538, 1 h, 1 ppm, 1 hr, read-out: Log Reduction): 1.6
log reduction at 2 ppm (ATCC6538, 1 h, 2 ppm, 1 hr, read-out: Log Reduction): 4.3
log reduction at 3 ppm (ATCC6538, 1 h, 3 ppm, 1 hr, read-out: Log Reduction): > 4.8
log reduction at 4 µg/mL (ATCC6538, 1 h, 1 hr): > 4.9
log reduction at 4 ppm (ATCC6538, 1 h, 4 ppm, 1 hr, read-out: Log Reduction): > 4.8
log reduction at 4 ppm (ATCC6538, 1 h, 4.0 ppm, Ex. 6, aged 19 months at 25 °C, 60 min, read-out: Log Reduction): > 4.9
log reduction at 4 ppm (ATCC6538, 1 h, 4.0 ppm, Ex. 7, different lot aged 18 months, 60 min, read-out: Log Reduction): > 4.8
log reduction at 4 ppm (ATCC6538, 1 h, 4.0 ppm, Ex. 8, different batch aged 19 months at 25 °C, 60 min, read-out: Log Reduction): > 4.9
log reduction at 5 ppm (ATCC6538, 1 h, 5 ppm, 1 hr, read-out: Log Reduction): > 4.8
log reduction at 4 µg/mL (ATCC6538, 2 h, 2 hr): > 4.9
log reduction at 4 µg/mL (ATCC6538, 3 h, 3 hr): > 4.9
log reduction at 4 µg/mL (ATCC6538, 4 h, 4 hr): > 4.9
